Results from patent US9549886B2, “Personal care formulations containing alkyl ketal esters and methods of manufacture” (SEGETIS, INC., priority 2010, dated 2017).
Where “and” joins values, the source holds several entries; their conditions need not be identical. Equal values may be shown once. Values belong to the compound of their own block, whether it stands above or below them.

Tests used:
[1] = Solubility of active agents in neat alkyl ketal esters (dissolution, storage at room temperature); details: for % solids dissolved in Et-LGK with heat, no precipitation / % solids in Et-LGK that did not (completely) dissolve or precipitated at room temperature / % solids dissolved in Et-LGK at room temperature, no precipitation: solvent Et-LGK; for % solids dissolved in Et-LGK with heat, no precipitation: dissolved at 35-80° C.; for % solids dissolved in Et-LGK with heat, no precipitation / % solids dissolved in Et-LGK at room temperature, no precipitation: still soluble after storage at room temperature (24 hours to 5 days) where stated; for % solids in Et-LGK that did not (completely) dissolve or precipitated at room temperature / % solids in Et-LPK that did not (completely) dissolve or precipitated at room temperature: insoluble; for % solids in Et-LGK that did not (completely) dissolve or precipitated at room temperature: partially dissolved or precipitated on room temperature storage; for % solids dissolved in Et-LPK with heat, no precipitation: dissolved at 50-80° C. or with heat, still soluble after storage at room temperature (24 hours to 5 days); for % solids in Et-LPK that did not (completely) dissolve or precipitated at room temperature: not completely dissolved or precipitated on room temperature storage
[2] = Three-component miscibility test (mixing in a vial at room temperature and shaking, visual clarity)
Text: The term “miscible” and its variations (“miscibility”, “compatibility”, and the like) are used herein as a synonym for “soluble”, i.e., a mixture of the materials by themselves form a “true” solution, in which one material is molecularly dispersed in the other, or in which one material is dispersed as droplets which have a longest dimension of less than 200 nm, such that the mixture is optically clear. […] A fully miscible alkyl ketal ester is soluble in another material, such as water, at all proportions from 99:1 to 1:99. A partially miscible alkyl ketal ester is immiscible in another material in proportions from greater than 30 parts of the alkyl ketal ester in 70 parts or less of the other material and miscible in other combinations. A sparingly miscible alkyl ketal ester is immiscible in another material or miscible in another material to the extent of less than 10 parts in 90 parts of the other material. […] Unless stated otherwise, miscibility is assessed at 25° C. […] By “macroscopically uniform,” it is meant that the formulation is uniform when viewed at a length scale of at least 10 micrometers.
In these tests, clear mixtures as observed without magnification from a distance of, e.g., 0.3 meters are considered to be “miscible,” whereas cloudy or phase separated mixtures are considered to be “immiscible.” […]
Three-component mixtures of ethyl-LGK, ethanol, and avobenzone were prepared by mixing the materials at various proportions at room temperature in a vial and shaking. […]
Three-component mixtures of ethyl-LGK, water, and oxybenzone were prepared by mixing the materials at various proportions at room temperature in a vial and shaking. […]
Three-component mixtures of Et-LGK, water, and phenoxyethanol were prepared by mixing the materials at various proportions at room temperature in a vial and shaking.
Three-component mixtures of N,N-diethyl-m-toluamide (DEET), ethyl-LGK, and water were prepared by mixing the materials at various proportions at room temperature in a vial and shaking.

[3] = Miscibility of alkyl ketal esters with water and organic compounds; format: physicochemical; details: for miscible with water / miscible with water to the extent of / miscible in water to the extent of: 25° C. unless stated otherwise; for dissolves or is miscible with organic compounds to the extent of: organic compounds as listed in the block (alcohols, esters, oils, solvents), 80 parts of the ketal
Procedure: Unless stated otherwise, miscibility is assessed at 25° C.

SMILES: CCCCC(CC)COC(=O)C=Cc1ccc(OC)cc1 (stereo not shown) [octyl methoxycinnamate, Ethylhexyl methoxy cinnamate]
50/50 mixture with Bu-LGK ([1]; room temperature): soluble
50/50 mixture with Et-LGK ([1]; room temperature where stated): soluble
50/50 mixture with Et-LPK ([1]; room temperature where stated): soluble

SMILES: O=C(OOC(=O)c1ccccc1)c1ccccc1 [Benzoyl peroxide]
% solids dissolved in Et-LGK with heat, no precipitation [1]: 5%
% solids in Et-LGK that did not (completely) dissolve or precipitated at room temperature [1]: 9.5%
solubility in many alkyl ketal esters ([1]; such as ethyl-LGK and ethyl-LPK): lower solubilities

SMILES: CCOC(=O)CC1(C)OCC(CO)O1 (stereo not shown) [Et-AcAcGK]
Result (miscibility of ketal with water) ([2]; 50.0% ketal / 50.0% water, no oxybenzone): Miscible
miscible with water [3]: in all proportions

SMILES: CCCOC(=O)CCC1(C)OCC(CO)O1 (stereo not shown) [n-propyl-LGK]
miscible with water to the extent of [3]: 1 part per 99 parts water

SMILES: CCCCCCC(O)CO (stereo not shown) [Caprylyl glycol]
% solids dissolved in Et-LGK at room temperature, no precipitation [1]: 15% and 20.8%

SMILES: CCOC(=O)CCC1(C)OCCO1 [ethyl-LEK]
miscible in water to the extent of [3]: 5 parts per 95 parts of water by weight

SMILES: CCOC(=O)CCC1(C)OCC(C)O1 (stereo not shown) [ethyl-LPK]
miscible in water to the extent of [3]: 2.5 parts in 97.5 parts of water
dissolves or is miscible with organic compounds to the extent of [3]: at least 20 parts of the organic compound in 80 parts

SMILES: COC(=O)CC1(C)OCC(CO)O1 (stereo not shown) [Me-AcAcGK]
miscible with water [3]: in all proportions

SMILES: O=C(CO)[C@H](O)CO [Erythrulose]
mixture with Bu-LGK at a ratio of 10/90 ([1]; room temperature): separated into distinct phases
mixture with Et-LPK at a ratio of 10/90 ([1]; room temperature): separated into distinct phases
mixture with Et-LGK at a ratio of 10/90 ([1]; room temperature, still soluble after 24 hours): clear uniform solution

SMILES: CCCCOC(=O)CCC1(C)OCC(CO)O1 (stereo not shown) [n-butyl-LGK]
miscible with water to the extent of [3]: 1 part per 99 parts water
dissolves or is miscible with organic compounds to the extent of [3]: at least 20 parts of the organic compound in 80 parts

Now from value to compound:

% solids dissolved in LEK with heat, no precipitation ([1]; after 2 weeks at room temperature): 37.5%
% solids that did not dissolve in ACAc-GK ([1]; room temperature): 31.9%
% solids that did not dissolve in methyl-LGK ([1]; room temperature): 14.9%
% solids that did not dissolve in propyl-LGK ([1]; room temperature): 17.8%
% solids dissolved in Bu-LGK at room temperature, no precipitation ([1]; solvent Bu-LGK, still soluble after 24 hours / 1 day at room temperature): 10%
% solids dissolved in Et-LEK at room temperature ([1]; solvent Et-LEK): 28.5%
% solids dissolved in Et-LGK with heat, no precipitation [1]: 20%
% solids in Et-LGK that did not (completely) dissolve or precipitated at room temperature [1]: 25%
% solids dissolved in Et-LGK at room temperature, no precipitation [1]: 10% and 18%
% solids dissolved in Et-LPK with heat, no precipitation ([1]; solvent Et-LPK): 30%
% solids in Et-LPK that did not (completely) dissolve or precipitated at room temperature ([1]; solvent Et-LPK): 40%
maximum solubility in propyl-LGK [2]: 10-18%
upper limit of solubility in ethanol [2]: 6.5-10%
concentration achieved in a solution ([2]; Et-AcAc-GK as a cosolvent (with water)): ≤ 29%
concentration achieved in an ethanolic solution ([2]; Et-LEK as a cosolvent): ≤ 30%
concentration achieved in a solution ([2]; Methyl-LGK as a cosolvent (with water)): ≤ 10%
concentration achieved in a solution ([2]; alkyl ketal solvent mixture (Et-LGK and Et-LPK 80/20) as a cosolvent (with water)): ≤ 20%
concentration achieved in a water solution ([2]; ethyl-LGK as a cosolvent): ≤ 13%
concentration achieved in an ethanolic solution ([2]; ethyl-LGK as a cosolvent): ≤ 17%
concentration achieved in an ethanolic solution ([2]; ethyl-LPK as a cosolvent): ≤ 28%
level at which by itself immiscible in ethanol ([2]; no ketal): 10 % by weight
level at which by itself immiscible in water ([2]; no ketal): 1 % by weight
SMILES: COc1ccc(C(=O)c2ccccc2)c(O)c1 [oxybenzone, Oxybenzone]

% solids dissolved in Bu-LGK with heat, no precipitation ([1]; solvent Bu-LGK, dissolved at 50-80° C., still soluble after 24 hours at room temperature where stated): 10%
% solids in Et-LGK that did not (completely) dissolve or precipitated at room temperature [1]: 20.8%
% solids dissolved in Et-LGK at room temperature, no precipitation [1]: 15%
% solids in Et-LPK that did not (completely) dissolve or precipitated at room temperature ([1]; solvent Et-LPK): 14.3%
% solids dissolved in Et-LPK at room temperature, no precipitation ([1]; solvent Et-LPK, still soluble after 24 hours / 1 day at room temperature where stated): 11%
SMILES: O=C(O)c1ccccc1O [salicylic acid, Salicylic acid]

level at which by itself immiscible in water ([2]; no ketal): 1 % by weight
SMILES: COC(=O)c1ccc(O)cc1 [methyl paraben, Methyl paraben]

% solids dissolved in Et-LGK with heat, no precipitation [1]: 5%
% solids dissolved in Et-LPK with heat, no precipitation ([1]; solvent Et-LPK): 10%
SMILES: Oc1ccc(O)cc1 [Hydroquinone]
